Measured values reported in PubChem BioAssay AID504473 (NMMLSC, 2011).
Activity calls are given as the source filed them.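 The calls were made as follows: active = GFP ratio to DMSO above 1.5 or below 0.66; inactive = the rest.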

Assays:
Test in all cases: expression changes of rapamycin-responsive GFP fusion proteins, S. cerevisiae, GFP-tagged clone panel, flow cytometry (AID 504473);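 also: median GFP fluorescence of the cells measured by high-throughput flow cytometry; test concentration not given here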
[1] = target: General amino acid permease AGP1 (Saccharomyces cerevisiae S288c) (UniProt P25376); conditions: S. cerevisiae GFP-tagged strains, 3 h, YCL025C
YAL060W = conditions: S. cerevisiae GFP-tagged strains, 3 h
YAL061W = conditions: S. cerevisiae GFP-tagged strains, 3 h
YBL087C = conditions: S. cerevisiae GFP-tagged strains, 3 h
YBR072W = conditions: S. cerevisiae GFP-tagged strains, 3 h
YBR139W = conditions: S. cerevisiae GFP-tagged strains, 3 h
YBR208C = conditions: S. cerevisiae GFP-tagged strains, 3 h
YBR248C = conditions: S. cerevisiae GFP-tagged strains, 3 h
YCL064C = conditions: S. cerevisiae GFP-tagged strains, 3 h
YCR002C = conditions: S. cerevisiae GFP-tagged strains, 3 h
YCR005C = conditions: S. cerevisiae GFP-tagged strains, 3 h
YDL130W = conditions: S. cerevisiae GFP-tagged strains, 3 h
YDL204W = conditions: S. cerevisiae GFP-tagged strains, 3 h
YDL205C = conditions: S. cerevisiae GFP-tagged strains, 3 h
YDR070C = conditions: S. cerevisiae GFP-tagged strains, 3 h
YDR382W = conditions: S. cerevisiae GFP-tagged strains, 3 h
YDR399W = conditions: S. cerevisiae GFP-tagged strains, 3 h
YDR453C = conditions: S. cerevisiae GFP-tagged strains, 3 h
YEL007W = conditions: S. cerevisiae GFP-tagged strains, 3 h
YEL060C = conditions: S. cerevisiae GFP-tagged strains, 3 h
YEL063C = conditions: S. cerevisiae GFP-tagged strains, 3 h
YEL071W = conditions: S. cerevisiae GFP-tagged strains, 3 h
YER081W = conditions: S. cerevisiae GFP-tagged strains, 3 h
YER117W = conditions: S. cerevisiae GFP-tagged strains, 3 h
YER151C = conditions: S. cerevisiae GFP-tagged strains, 3 h
YER156C = conditions: S. cerevisiae GFP-tagged strains, 3 h
YFR031C-A = conditions: S. cerevisiae GFP-tagged strains, 3 h
YFR053C = conditions: S. cerevisiae GFP-tagged strains, 3 h
YGL036W = conditions: S. cerevisiae GFP-tagged strains, 3 h
YGL062W = conditions: S. cerevisiae GFP-tagged strains, 3 h
YGL135W = conditions: S. cerevisiae GFP-tagged strains, 3 h
YGL147C = conditions: S. cerevisiae GFP-tagged strains, 3 h
YGR019W = conditions: S. cerevisiae GFP-tagged strains, 3 h
YGR034W = conditions: S. cerevisiae GFP-tagged strains, 3 h
YGR088W = conditions: S. cerevisiae GFP-tagged strains, 3 h
YGR121C = conditions: S. cerevisiae GFP-tagged strains, 3 h
YHL021C = conditions: S. cerevisiae GFP-tagged strains, 3 h
YHR018C = conditions: S. cerevisiae GFP-tagged strains, 3 h
YHR087W = conditions: S. cerevisiae GFP-tagged strains, 3 h
YHR141C = conditions: S. cerevisiae GFP-tagged strains, 3 h
YHR144C = conditions: S. cerevisiae GFP-tagged strains, 3 h
YHR203C = conditions: S. cerevisiae GFP-tagged strains, 3 h
YIL043C = conditions: S. cerevisiae GFP-tagged strains, 3 h
YIL051C = conditions: S. cerevisiae GFP-tagged strains, 3 h
YIL052C = conditions: S. cerevisiae GFP-tagged strains, 3 h
YIL066C = conditions: S. cerevisiae GFP-tagged strains, 3 h
YIL069C = conditions: S. cerevisiae GFP-tagged strains, 3 h
YJL056C = conditions: S. cerevisiae GFP-tagged strains, 3 h
YJL144W = conditions: S. cerevisiae GFP-tagged strains, 3 h
YJR148W = conditions: S. cerevisiae GFP-tagged strains, 3 h
YKL086W = conditions: S. cerevisiae GFP-tagged strains, 3 h
YKL103C = conditions: S. cerevisiae GFP-tagged strains, 3 h
YKL119C = conditions: S. cerevisiae GFP-tagged strains, 3 h
YKR039W = conditions: S. cerevisiae GFP-tagged strains, 3 h
YKR093W = conditions: S. cerevisiae GFP-tagged strains, 3 h
YKR094C = conditions: S. cerevisiae GFP-tagged strains, 3 h
YLL026W = conditions: S. cerevisiae GFP-tagged strains, 3 h
YLL039C = conditions: S. cerevisiae GFP-tagged strains, 3 h
YLR058C = conditions: S. cerevisiae GFP-tagged strains, 3 h
YLR109W = conditions: S. cerevisiae GFP-tagged strains, 3 h
YLR142W = conditions: S. cerevisiae GFP-tagged strains, 3 h
YLR185W = conditions: S. cerevisiae GFP-tagged strains, 3 h
YLR237W = conditions: S. cerevisiae GFP-tagged strains, 3 h
YLR287C-A = conditions: S. cerevisiae GFP-tagged strains, 3 h
YLR367W = conditions: S. cerevisiae GFP-tagged strains, 3 h
YML004C = conditions: S. cerevisiae GFP-tagged strains, 3 h
YML026C = conditions: S. cerevisiae GFP-tagged strains, 3 h
YML034W = conditions: S. cerevisiae GFP-tagged strains, 3 h
YML063W = conditions: S. cerevisiae GFP-tagged strains, 3 h
YML128C = conditions: S. cerevisiae GFP-tagged strains, 3 h
YMR105C = conditions: S. cerevisiae GFP-tagged strains, 3 h
YMR120C = conditions: S. cerevisiae GFP-tagged strains, 3 h
YMR251W-A = conditions: S. cerevisiae GFP-tagged strains, 3 h
YMR307W = conditions: S. cerevisiae GFP-tagged strains, 3 h
YNL015W = conditions: S. cerevisiae GFP-tagged strains, 3 h
YNL068C = conditions: S. cerevisiae GFP-tagged strains, 3 h
YNL112W = conditions: S. cerevisiae GFP-tagged strains, 3 h
YNL142W = conditions: S. cerevisiae GFP-tagged strains, 3 h
YNL214W = conditions: S. cerevisiae GFP-tagged strains, 3 h
YNR001C = conditions: S. cerevisiae GFP-tagged strains, 3 h
YOL052C-A = conditions: S. cerevisiae GFP-tagged strains, 3 h
YOR038C = conditions: S. cerevisiae GFP-tagged strains, 3 h
YOR063W = conditions: S. cerevisiae GFP-tagged strains, 3 h
YOR136W = conditions: S. cerevisiae GFP-tagged strains, 3 h
YOR173W = conditions: S. cerevisiae GFP-tagged strains, 3 h
YOR182C = conditions: S. cerevisiae GFP-tagged strains, 3 h
YOR371C = conditions: S. cerevisiae GFP-tagged strains, 3 h
YOR375C = conditions: S. cerevisiae GFP-tagged strains, 3 h
YPL111W = conditions: S. cerevisiae GFP-tagged strains, 3 h
YPL131W = conditions: S. cerevisiae GFP-tagged strains, 3 h
YPL150W = conditions: S. cerevisiae GFP-tagged strains, 3 h
YPL220W = conditions: S. cerevisiae GFP-tagged strains, 3 h
YPL265W = conditions: S. cerevisiae GFP-tagged strains, 3 h
YPR132W = conditions: S. cerevisiae GFP-tagged strains, 3 h
YPR145W = conditions: S. cerevisiae GFP-tagged strains, 3 h
YPR184W = conditions: S. cerevisiae GFP-tagged strains, 3 h

Chain of General amino acid permease AGP1 (Saccharomyces cerevisiae S288c) (P25376 whole entry, looked up): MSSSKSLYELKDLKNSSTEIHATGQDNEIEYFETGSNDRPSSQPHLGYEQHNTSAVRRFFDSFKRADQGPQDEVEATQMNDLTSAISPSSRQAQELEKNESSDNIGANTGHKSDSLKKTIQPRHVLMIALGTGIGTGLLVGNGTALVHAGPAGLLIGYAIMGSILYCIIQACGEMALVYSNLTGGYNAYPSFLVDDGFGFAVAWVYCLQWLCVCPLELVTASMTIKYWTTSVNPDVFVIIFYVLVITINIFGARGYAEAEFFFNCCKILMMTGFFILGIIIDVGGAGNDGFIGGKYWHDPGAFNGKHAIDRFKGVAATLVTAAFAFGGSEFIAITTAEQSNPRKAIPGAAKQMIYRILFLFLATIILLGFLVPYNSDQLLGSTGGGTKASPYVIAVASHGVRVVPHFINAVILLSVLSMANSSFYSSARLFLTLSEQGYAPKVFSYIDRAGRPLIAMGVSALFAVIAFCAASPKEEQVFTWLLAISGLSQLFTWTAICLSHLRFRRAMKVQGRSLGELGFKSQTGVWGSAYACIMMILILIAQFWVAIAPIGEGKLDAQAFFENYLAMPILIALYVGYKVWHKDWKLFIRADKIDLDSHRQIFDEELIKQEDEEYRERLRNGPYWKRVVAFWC

SMILES: CNc1nc(N)c([N+](=O)[O-])c(Nc2ccccc2OC)n1
- GFP ratio to DMSO [1]: 0.804 (inactive)
- GFP ratio to DMSO (YAL060W): 0.645
- GFP ratio to DMSO (YAL061W): 0.668 (inactive)
- GFP ratio to DMSO (YBL087C): 1.71
- GFP ratio to DMSO (YBR072W): 3.23
- GFP ratio to DMSO (YBR139W): 0.664 (inactive)
- GFP ratio to DMSO (YBR208C): 0.657 (inactive)
- GFP ratio to DMSO (YBR248C): 0.723 (inactive)
- GFP ratio to DMSO (YCL064C): 0.707 (inactive)
- GFP ratio to DMSO (YCR002C): 0.541
- GFP ratio to DMSO (YCR005C): 0.783 (inactive)
- GFP ratio to DMSO (YDL130W): 0.302
- GFP ratio to DMSO (YDL204W): 0.703 (inactive)
- GFP ratio to DMSO (YDL205C): 0.742 (inactive)
- GFP ratio to DMSO (YDR070C): 0.503
- GFP ratio to DMSO (YDR382W): 0.349
- GFP ratio to DMSO (YDR399W): 2.04
- GFP ratio to DMSO (YDR453C): 5.92
- GFP ratio to DMSO (YEL007W): 0.721 (inactive)
- GFP ratio to DMSO (YEL060C): 0.535
- GFP ratio to DMSO (YEL063C): 0.998 (inactive)
- GFP ratio to DMSO (YEL071W): 0.904 (inactive)
- GFP ratio to DMSO (YER081W): 0.632
- GFP ratio to DMSO (YER117W): 2.43
- GFP ratio to DMSO (YER151C): 0.745 (inactive)
- GFP ratio to DMSO (YER156C): 0.819 (inactive)
- GFP ratio to DMSO (YFR031C-A): 0.381
- GFP ratio to DMSO (YFR053C): 0.642
- GFP ratio to DMSO (YGL036W): 0.643
- GFP ratio to DMSO (YGL062W): 0.915 (inactive)
- GFP ratio to DMSO (YGL135W): 1.01 (inactive)
- GFP ratio to DMSO (YGL147C): 0.902 (inactive)
- GFP ratio to DMSO (YGR019W): 0.679 (inactive)
- GFP ratio to DMSO (YGR034W): 0.607
- GFP ratio to DMSO (YGR088W): 0.767 (inactive)
- GFP ratio to DMSO (YGR121C): 0.737 (inactive)
- GFP ratio to DMSO (YHL021C): 0.726 (inactive)
- GFP ratio to DMSO (YHR018C): 0.649
- GFP ratio to DMSO (YHR087W): 1.71
- GFP ratio to DMSO (YHR141C): 1.25 (inactive)
- GFP ratio to DMSO (YHR144C): 0.68 (inactive)
- GFP ratio to DMSO (YHR203C): 0.792 (inactive)
- GFP ratio to DMSO (YIL043C): 0.829 (inactive)
- GFP ratio to DMSO (YIL051C): 0.669 (inactive)
- GFP ratio to DMSO (YIL052C): 0.379
- GFP ratio to DMSO (YIL066C): 0.693 (inactive)
- GFP ratio to DMSO (YIL069C): 0.717 (inactive)
- GFP ratio to DMSO (YJL056C): 0.664 (inactive)
- GFP ratio to DMSO (YJL144W): 7.28
- GFP ratio to DMSO (YJR148W): 0.822 (inactive)
- GFP ratio to DMSO (YKL086W): 0.777 (inactive)
- GFP ratio to DMSO (YKL103C): 0.755 (inactive)
- GFP ratio to DMSO (YKL119C): 0.774 (inactive)
- GFP ratio to DMSO (YKR039W): 1.41 (inactive)
- GFP ratio to DMSO (YKR093W): 0.526
- GFP ratio to DMSO (YKR094C): 0.863 (inactive)
- GFP ratio to DMSO (YLL026W): 0.761 (inactive)
- GFP ratio to DMSO (YLL039C): 0.576
- GFP ratio to DMSO (YLR058C): 0.606
- GFP ratio to DMSO (YLR109W): 0.271
- GFP ratio to DMSO (YLR142W): 0.7 (inactive)
- GFP ratio to DMSO (YLR185W): 1.38 (inactive)
- GFP ratio to DMSO (YLR237W): 3.5
- GFP ratio to DMSO (YLR287C-A): 0.309
- GFP ratio to DMSO (YLR367W): 0.847 (inactive)
- GFP ratio to DMSO (YML004C): 0.689 (inactive)
- GFP ratio to DMSO (YML026C): 1.64
- GFP ratio to DMSO (YML034W): 0.676 (inactive)
- GFP ratio to DMSO (YML063W): 0.482
- GFP ratio to DMSO (YML128C): 0.697 (inactive)
- GFP ratio to DMSO (YMR105C): 0.849 (inactive)
- GFP ratio to DMSO (YMR120C): 0.433
- GFP ratio to DMSO (YMR251W-A): 0.286
- GFP ratio to DMSO (YMR307W): 0.757 (inactive)
- GFP ratio to DMSO (YNL015W): 1.84
- GFP ratio to DMSO (YNL068C): 0.738 (inactive)
- GFP ratio to DMSO (YNL112W): 0.867 (inactive)
- GFP ratio to DMSO (YNL142W): 0.756 (inactive)
- GFP ratio to DMSO (YNL214W): 0.786 (inactive)
- GFP ratio to DMSO (YNR001C): 0.75 (inactive)
- GFP ratio to DMSO (YOL052C-A): 2.31
- GFP ratio to DMSO (YOR038C): 0.771 (inactive)
- GFP ratio to DMSO (YOR063W): 0.813 (inactive)
- GFP ratio to DMSO (YOR136W): 0.793 (inactive)
- GFP ratio to DMSO (YOR173W): 0.726 (inactive)
- GFP ratio to DMSO (YOR182C): 3.17
- GFP ratio to DMSO (YOR371C): 0.67 (inactive)
- GFP ratio to DMSO (YOR375C): 0.81 (inactive)
- GFP ratio to DMSO (YPL111W): 0.779 (inactive)
- GFP ratio to DMSO (YPL131W): 0.657 (inactive)
- GFP ratio to DMSO (YPL150W): 0.677 (inactive)
- GFP ratio to DMSO (YPL220W): 0.579
- GFP ratio to DMSO (YPL265W): 0.542
- GFP ratio to DMSO (YPR132W): 1.76
- GFP ratio to DMSO (YPR145W): 0.81 (inactive)
- GFP ratio to DMSO (YPR184W): 0.669 (inactive)
